How the values were obtained:
PAF receptor = molecular target: T1, PAF receptor (Homo sapiens, UniProt P25105); test: Assay A: Human Platelet Receptor Binding (inhibition of specific [^3 H]PAF binding to human platelet membrane preparation); conditions: 0.75 nM [^3 H]PAF, human platelet membranes, 30 minutes at 24° C.
T1 construct: human platelet membrane preparation; tissue Lifesource, Inc. (Glenview, Ill.); host or cells: human packed platelets (membrane preparation)
Experimental: Compounds of the invention were evaluated for their ability to inhibit specific binding of [^3 H]PAF to human platelet membrane preparation. Human packed platelets were obtained from Lifesource, Inc. (Glenview, Ill.) and washed 3 times with 10 mM Trizma pH 7.0, 2 mM EDTA (dipotassium salt), 150 mM KCl and then once with 10 mM Trizma 7.4, 20 mM CaCl2. The platelets were broken by freezing in a dry ice-ethanol bath, followed by thawing in 24° C. water baths. The preparation was centrifuged (40,000×g, 20 minutes, 4'C) and the pellet suspended in 10 mM Trizma 7.4, 20 mM CaCl2, 5 mg/ml human albumin. Protein concentration in the platelet membrane preparation was determined by the Lowry method [O. H. Lowry et al., J. Biol. Chem., 193, 265-275 (1951)]. Aliquots of the membrane preparation were stored at -70° C. Each preparation was characterized for PAF receptor number and dissociation constant (Kd). In binding assays 5 μl of test compound, solubilized in DMSO, was added to polypropylene tubes along with 0.75 nM [^3 H]PAF and 200 mcl [0.075 nM] of membranes and 95 μl 10 mM Trizma 7.4, 20 mM CaCl2, 5 mg/ml human albumin. Tubes were incubated for 30 minutes at 24° C. The incubation was terminated by adding 4 ml of ice-cold 10 mM Trizma pH 7.4, 20 mM CaCl2 and 20 mg/ml BSA prior to vacuum filtration using Whatman GF/C filters. Filters were prepared and counted for a scintillation counter. All DPM values were corrected for background and isotope decay. Triplicate determinations for single doses were averaged. The amount of non-specific binding was subtracted from all dose averages, giving an amount of specific binding in all cases. The IC50 values for the compounds of the invention were determined by the Allfit program using percent displacement data. (Allfit is a `basic` computer program for simultaneous curve fitting of a family of signoidal dose-response curves using the four parameter logistic equation.) Results are shown in Table I.

human platelets = test: Assay B: Human Platelet Aggregation Inhibition (PAF-induced aggregation in human platelet-rich plasma); assay type: cell-based; conditions: 37°
Experimental: Compounds of the invention were evaluated for their ability to inhibit PAF-induced aggregation of human platelets in a human-platelet-rich plasma. Venous blood was collected from donors who fasted for 8 hours and were instructed not to use antiinflammatory drugs for 2 weeks prior to the blood draw. Blood was collected into syringes containing 0.1 ml of 3.8% [w/v] citrate and centrifuged in polypropylene tubes at 150 xg for 20 minutes at room temperature. The platelet rich plasma [PRP] was collected and let sit for 20 minutes at room temperature. Platelet activating factor [PAF] was diluted in 0.9% NaCl with 0.25% bovine serum albumin. Silicon treated cuvettes with stir bars were placed in the 37° heating block of the platelet aggregometer [Bio/Data Corporation, Platelet Aggregation Profiler, Model PAP-4]. PRP and test compound were added to cuvettes and aggregation monitored for 10-15 seconds at 37° with stirring. PAF was added and aggregation monitored for an additional 3 minutes. Peak aggregation was considered the peak of the first aggregation wave, usually 45-60 seconds after PAF addition. Inhibition of aggregation was determined by the following: 1-[(% aggregation in the presence of compound).div.(% maximal aggregation)]. A log/logit transformation was used to determine half maximal inhibitory concentration of a test compound [IC50 ].

T1 sequence (P25105 whole entry): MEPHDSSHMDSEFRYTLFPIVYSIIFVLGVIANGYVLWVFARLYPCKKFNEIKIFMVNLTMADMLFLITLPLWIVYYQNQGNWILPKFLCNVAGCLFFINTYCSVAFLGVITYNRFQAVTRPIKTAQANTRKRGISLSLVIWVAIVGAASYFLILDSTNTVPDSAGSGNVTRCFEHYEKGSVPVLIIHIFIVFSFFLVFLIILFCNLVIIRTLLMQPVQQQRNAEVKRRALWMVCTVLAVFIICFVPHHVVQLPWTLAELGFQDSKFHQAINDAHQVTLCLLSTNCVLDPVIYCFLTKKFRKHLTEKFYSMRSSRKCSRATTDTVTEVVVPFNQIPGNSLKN

Row | Structure (SMILES) | IC50 (PAF receptor) | IC50 (human platelets)
1 | COc1cc(C(=O)N(C(C)C)C2CCCCC2)ccc1Cn1ccc2ncccc21 [Example 1, N-cyclohexyl-3-methoxy-N-(1-methylethyl)-4-(1H-pyrrolo[3,2-b]pyridin-1-ylmethyl)benzamide] | 38 nM | 2 nM
2 | COc1cc(Cn2ccc3ncccc32)ccc1C(=O)N(C(C)C)C1CCCCC1 [Example 3, N-cyclohexyl-2-methoxy-N-(1-methylethyl)-4-(1H-pyrrolo[3,2-b]pyridin-1-ylmethyl)benzamide] | 2 nM | 
3 | COc1cc(Cn2ccc3ncccc32)ccc1C(=O)N(C1CCCCC1)C1CCC1 [Example 4, N-cyclobutyl-N-cyclohexyl-2-methoxy-4-(1H-pyrrolo[3,2-b]pyridin-1-ylmethyl)benzamide] | 7 nM | 
4 | COc1cc(Cn2ccc3ncccc32)ccc1C(=O)N(C1CCCC1)C1CC(C)CC(C)C1 (stereo not shown) [Example 5, N-cyclopentyl-N-(3,5-dimethylcyclohexyl)-2-methoxy-4-(1H-pyrrolo[3,2-b]pyridin-1-ylmethyl)benzamide] | 15 nM | 
5 | Cc1cc(C(=O)N(C2CCCCC2)C2CCCC2)ccc1Cn1ccc2ncccc21 [Example 6, N-cyclohexyl-N-cyclopentyl-3-methyl-4-(1H-pyrrolo[3,2-b]pyridin-1-ylmethyl)benzamide] | 39 nM | 
6 | CC(C)N(C(=O)c1ccc(Cn2ccc3ncccc32)c(Br)c1)C1CCCCC1 [Example 7, 3-bromo-N-cyclohexyl-N-(1-methylethyl)-4-(1H-pyrrolo[3,2-b]pyridin-1-ylmethyl)benzamide] | 8 nM | 

From US5360907A, “Pyrrolo[3,2-B]pyridinylalkyl benzamide derivatives” (G.D. Searle & Co., priority 1993, dated 1994)
